Target: T1, EPHA5 (Homo sapiens, UniProt P54756)
T1 construct: purchased Thermo Fisher Scientific (Life Technologies) SelectScreen
Test: SelectScreen Z'LYTE
Type: biochemical
Procedure, shortened: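 SelectScreen broad panel; activity (Z'LYTE, Adapta) plus binding formats. ATP: Km app for CSF1R Z'LYTE; 10 for CAMK1 Adapta. Readout = % per kinase.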

T1 sequence (P54756 25-1037): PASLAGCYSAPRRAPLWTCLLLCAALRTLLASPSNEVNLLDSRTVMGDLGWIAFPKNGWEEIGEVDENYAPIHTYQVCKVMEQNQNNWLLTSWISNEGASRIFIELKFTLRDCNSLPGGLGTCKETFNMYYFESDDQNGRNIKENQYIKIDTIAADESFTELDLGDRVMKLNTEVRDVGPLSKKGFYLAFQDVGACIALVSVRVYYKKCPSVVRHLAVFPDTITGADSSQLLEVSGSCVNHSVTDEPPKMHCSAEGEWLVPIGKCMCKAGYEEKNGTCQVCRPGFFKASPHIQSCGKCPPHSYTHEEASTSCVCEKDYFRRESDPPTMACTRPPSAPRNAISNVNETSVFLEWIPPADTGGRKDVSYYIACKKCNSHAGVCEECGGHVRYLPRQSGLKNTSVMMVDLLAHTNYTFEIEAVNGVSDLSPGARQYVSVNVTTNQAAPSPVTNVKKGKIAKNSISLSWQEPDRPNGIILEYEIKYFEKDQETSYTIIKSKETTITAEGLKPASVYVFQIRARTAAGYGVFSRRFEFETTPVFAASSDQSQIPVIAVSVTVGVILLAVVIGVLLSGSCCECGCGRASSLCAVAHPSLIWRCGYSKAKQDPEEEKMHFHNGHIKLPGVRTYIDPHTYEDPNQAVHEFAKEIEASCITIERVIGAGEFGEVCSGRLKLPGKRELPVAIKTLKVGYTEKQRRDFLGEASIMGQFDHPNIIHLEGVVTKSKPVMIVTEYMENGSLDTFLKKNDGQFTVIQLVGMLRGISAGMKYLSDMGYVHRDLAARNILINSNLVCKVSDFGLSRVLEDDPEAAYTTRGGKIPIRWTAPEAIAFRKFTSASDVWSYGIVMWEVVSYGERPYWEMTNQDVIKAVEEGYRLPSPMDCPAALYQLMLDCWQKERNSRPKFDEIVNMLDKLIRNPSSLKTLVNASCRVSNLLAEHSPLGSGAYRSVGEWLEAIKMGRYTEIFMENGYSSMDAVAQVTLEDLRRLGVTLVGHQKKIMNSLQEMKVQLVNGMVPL

CN(C(=O)CN1CCOCC1)c1ccc2sc3c(-c4cccc5c(=O)cc(N6CC7CCC(C6)O7)oc45)cccc3c2c1 [NU5455]
inhibition at 1 µM: 5.1%

Reference: paper PMC6934184, “Selective DNA-PKcs inhibition extends the therapeutic index of localized radiotherapy and chemotherapy” (The Journal of Clinical Investigation, 2019)
